Experiments:
[1] = biological target: T1, SHP2 enzyme (catalytic domain, amino acid sequence 224-528) (Homo sapiens, UniProt Q06124); test: SHP2 enzyme inhibition assay (DiFMUP substrate, fluorescence); assay type: biochemical; conditions: for IC50: SHP2 catalytic domain, DiFMUP substrate, 30 min pre-incubation, read-out: S HP2 I C50; for SHP2 IC50 times lower than control compound 11a-1: relative to 11a-1, IC50 = 0.108 µM
T1 construct: purchased GenScript
T1 sequence (Q06124 224-528): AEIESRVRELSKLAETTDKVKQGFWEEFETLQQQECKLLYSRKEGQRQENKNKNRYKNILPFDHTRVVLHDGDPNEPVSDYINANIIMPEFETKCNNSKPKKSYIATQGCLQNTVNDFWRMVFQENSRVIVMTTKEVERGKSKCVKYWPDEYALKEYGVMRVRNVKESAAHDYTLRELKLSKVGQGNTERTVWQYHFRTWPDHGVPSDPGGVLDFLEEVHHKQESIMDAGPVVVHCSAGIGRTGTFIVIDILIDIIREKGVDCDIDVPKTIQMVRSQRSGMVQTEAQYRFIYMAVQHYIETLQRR
Experimental: This experiment evaluates the inhibitory effect of the test compounds on SHP2 enzyme activity by detecting the reaction between the human recombinant protein SHP2 enzyme and the substrate.
The stock solutions of the reaction buffer components were thawed and mixed homogeneously at room temperature, to prepare the reaction buffer (55 mM HEPES pH = 7.2 (Sigma, Cat. No. #PHR1428), 100 mM NaCl (Beyotime, Cat. No. #ST374, 5 M solution), 0.5 mM EDTA (Beyotime, Cat. No. #ST066), 1 mM DL-Dithiothreitol (DTT) (Sigma, Cat. No. #D9779), 0.002% BSA (Solarbio, Cat. No. #A8010), 0.001% Brij35 (Brij® L23 solution (Brij35) (Sigma, Cat. No. #B4184)). The SHP2 enzyme (catalytic domain, amino acid sequence 224-528, expressed and purified by GenScript) was thawed slowly on ice. 1 µL of this solution (1.37 mg/mL) was added to 386 µL of the reaction buffer to dilute it to 100 nM. Then, 120 µL of the 100 nM SHP2 enzyme solution was added to 2880 µL of reaction buffer to prepare a 4 nM SHP2 enzyme working solution. The test compounds and the specific inhibitor of SHP2 (11a-1, used as a positive control, Zeng, L. et al., J. Med. Chem. 2014, 57, 6594-6609) were prepared as 10 mM DMSO solutions. 10 µL of the 10 mM compound solution was mixed with 20 µL of DMSO solution, and then serially diluted 3-fold, resulting in 10 concentrations. 1 µL of the serially diluted solution was mixed with 99 µL of reaction buffer to obtain a 10-fold diluted compound working solution.
A 96-well black half-area microplate (Greiner, catalog #675076) was used. 25 µL of 4 nM SHP2 enzyme working solution and 5 µL of 10x compound working solution were added to each well and incubated at room temperature for 30 minutes. 15 µL of DiFMUP substrate (Thermo Fisher Scientific, catalog #D6567) was added to 2985 µL of reaction buffer to prepare a 50 µM substrate working solution. After incubation of the compounds and SHP2 enzyme, 20 µL of the 50 µM substrate working solution was added to each well and incubated at room temperature for 5 minutes. The plate was then read on a multi-mode microplate reader (BioTek, Synergy H1) at 340 nm/450 nm fluorescence.
Data were analyzed using GraphPad Prism 9.0 software. A non-linear S-curve regression dose-response-inhibition equation was used to fit the data and generate the dose-response curve, from which the IC50 value was calculated. [formula]

KYSE520 = test: CellTiter-Glo cell proliferation inhibition, KYSE520; assay type: cell-based, human; conditions: Homo sapiens, KYSE-520; KYSE520 cells, 120 hours, CellTiter-Glo
Text: In this study, the CellTiter-Glo® Luminescent Cell Viability Assay kit from Promega was used to evaluate the inhibitory effects of the disclosed compounds on the proliferation of cell lines KYSE520 (a human esophageal squamous cell carcinoma cell line dependent on SHP2 for growth), MeWo (a human malignant melanoma cell line), and MV4-11 (an RTK-mutant human acute monocytic leukemia cell line).
KYSE520 cells (Nanjing Kebaio Biotechnology Co., Ltd., Catalog #CBP60658) were thawed by rapidly shaking the cryovial in a 37 °C water bath to thaw within 1 minute. The thawed cell suspension was mixed homogeneously with RPMI 1640 medium (HyClone, Catalog #SH30027.01) containing 10% FBS (ExCell, Catalog #FND500), centrifuged at 1000 rpm for 5 minutes, and the supernatant was discarded. The cell pellet was resuspended in 5 mL of complete culture medium (RPMI 1640 medium containing 10% FBS) and placed in a cell culture flask with 25 cm^2 of bottom area, then cultured in a cell culture incubator at 37 °C, 95% humidity, and 5% CO2. Cell passaging was performed when the cell confluence reached approximately 80%. During cell passaging, the old culture medium was discarded, the cells were washed once with DPBS (Thermo Fisher, Catalog #14190-144), and 1 mL of trypsin (Thermo Fisher, Catalog #25200072) was added to digest the cells. When the cells dispersed into single cells and detached from the bottom of the culture flask, 3 mL of fresh complete culture medium was added to stop the digestion. After gently pipetting the cell suspension, 1/5 of the cell suspension was retained, 5 mL of fresh complete culture medium was added, and after mixing, the cells were placed in a cell culture flask for further culture. Cell plating was performed when the cell confluence again reached approximately 80%. During cell plating, following the cell passaging method, 1/5 of the cell suspension was retained for continued culture, and the remaining 4/5 of the cell suspension was placed in a 15 mL centrifuge tube. Cell viability was determined using the trypan blue exclusion method to ensure that cell viability was above 90%. A cell suspension with a density of 2.22 × 10^4 cells/mL was prepared using complete culture medium, and 135 µL of the cell suspension was added to a 96-well transparent flat-bottom black-walled cell culture plate (Greiner, Catalog #655090), resulting in a cell density of 3000 viable cells per well. A control group containing only complete culture medium without cells and compounds (i.e., culture medium control) and a control group containing cells but no compound (i.e., cell control) were set up. The cell plates were incubated overnight in a cell culture incubator. First, a 10 mM stock solution of the compound (Example compound and positive control compound 11a-1) in DMSO (Damas-beta, catalog #75927R) was serially diluted 3-fold to the 9th concentration, and a 10th concentration containing only DMSO (without compound) was also prepared as a control. Then, the DMSO solutions containing different concentrations of the compound were diluted 100-fold with complete culture medium, resulting in a 1% DMSO concentration in each solution. Finally, 15 µL of each solution was added to the corresponding wells of the cell culture plate, resulting in a starting compound concentration of 10 µM, with a 3-fold dilution between adjacent concentrations, and a final DMSO concentration of 0.1% in the cell culture plate. The cell plates were then incubated in the cell culture incubator for another 120 hours.
For endpoint detection, CellTiter-Glo reagent (Promega, catalog number #G7573, CellTiter-Glo® Luminescent Cell Viability Assay Kit) was melt and each cell plate was moved to room temperature for equilibration for 30 minutes. 75 µL (KYSE520 cells) or 50 µL (MeWo cells and MV 4-11 cells) of CellTiter-Glo was added to each well of the corresponding cell plate. The plates were shaken on a track-mounted shaker for 2 minutes to fully lyse the cells. […]

Row | Compound | IC50 [1] | SHP2 IC50 times lower than control compound 11a-1 [1] | IC50 (KYSE520)
1 | CC1(n2c(-c3ccc(NC(=O)C(=O)Nc4ccc(N5CC[C@H](CO)C5)cc4)cc3)cc3cc(F)c(-c4nnn[nH]4)cc32)CCC1 [Example 13] | 0.066 µM | – | 0.182 µM
2 | O=C(Nc1ccc(-c2cc3cc(F)c(-c4nnn[nH]4)cc3n2C2CCC2)cc1)C(=O)Nc1ccc(N2CCC(F)(CO)C2)cc1 (stereo not drawn) [Example 17] | 0.12 µM | – | 0.185 µM
3 | CC(C)(O)CC1CCN(c2ccc(NC(=O)C(=O)Nc3ccc(-c4cc5cc(F)c(-c6nnn[nH]6)cc5n4C4CCC4)cc3)cc2)CC1 [Example 27] | 0.111 µM | – | 0.17 µM
4 | C[C@@H](O)C1CCN(c2ccc(NC(=O)C(=O)Nc3ccc(-c4cc5cc(F)c(-c6nnn[nH]6)cc5n4C4(C)CCC4)cc3)cc2)CC1 [Example 30] | 0.086 µM | – | 0.192 µM
5 | CCC(O)C1CCN(c2ccc(NC(=O)C(=O)Nc3ccc(-c4cc5cc(F)c(-c6nnn[nH]6)cc5n4C4CCC4)cc3)cc2)CC1 (stereo not drawn) [Example 31] | 0.088 µM | – | 0.116 µM
6 | O=C(Nc1ccc(-c2cc3cc(F)c(-c4nnn[nH]4)cc3n2C2CCC2)cc1)C(=O)Nc1ccc(N2CCC(C(O)C(F)(F)F)CC2)cc1 (stereo not drawn) [Example 32] | 0.061 µM | – | 0.182 µM
7 | CC(C)(O)C1CCN(c2ccc(NC(=O)C(=O)Nc3ccc(-c4cc5cc(F)c(-c6nnn[nH]6)cc5n4Cc4ccccc4)cc3)cc2)CC1 [Example 36] | 0.052 µM | – | 0.12 µM
8 | CC1(n2c(-c3ccc(NC(=O)C(=O)Nc4ccc(N5CC6(CCOCC6)C5)cc4)cc3)cc3cc(F)c(-c4nnn[nH]4)cc32)CCC1 [Example 58] | 0.031 µM | 3-4 times | 0.125 µM
9 | CC1(n2c(-c3ccc(NC(=O)C(=O)Nc4ccc(N5CCC6(CCCOC6)CC5)cc4)cc3)cc3cc(F)c(-c4nnn[nH]4)cc32)CCC1 [Example 75] | 0.034 µM | 3-4 times | 0.103 µM
10 | CC1(n2c(-c3ccc(NC(=O)C(=O)Nc4ccc(N5CC6(CCC(O)CC6)C5)cc4)cc3)cc3cc(F)c(-c4nnn[nH]4)cc32)CCC1 [Example 82] | 0.03 µM | 3-4 times | 0.097 µM
11 | CC1(n2c(-c3ccc(NC(=O)C(=O)Nc4ccc(N5CC6(CCC(CO)CC6)C5)cc4)cc3)cc3cc(F)c(-c4nnn[nH]4)cc32)CCC1 [Example 86] | 0.064 µM | – | 0.158 µM
12 | CC1(O)CC2(CCN(c3ccc(NC(=O)C(=O)Nc4ccc(-c5cc6cc(F)c(-c7nnn[nH]7)cc6n5C5CCC5)cc4)cc3)C2)C1 (stereo not drawn) [Example 91] | 0.093 µM | – | 0.101 µM
13 | CC(C)(O)C1CC2(CCN(c3ccc(NC(=O)C(=O)Nc4ccc(-c5cc6cc(F)c(-c7nnn[nH]7)cc6n5C5CCC5)cc4)cc3)CC2)C1 [Example 98] | 0.083 µM | – | 0.195 µM
14 | CC1(n2c(-c3ccc(NC(=O)C(=O)Nc4ccc(N5CC6CC(CO)CC6C5)cc4)cc3)cc3cc(F)c(-c4nnn[nH]4)cc32)CCC1 (stereo not drawn) [Example 120] | 0.055 µM | – | 0.115 µM

Second part, led by results:

Row | IC50 [1] | SHP2 IC50 times lower than control compound 11a-1 [1] | Compound | IC50 (KYSE520)
15 | 0.077 µM | – | CC(C)(O)C1CC2(CCN(c3ccc(NC(=O)C(=O)Nc4ccc(-c5cc6cc(F)c(-c7nnn[nH]7)cc6n5C5(C)CCC5)cc4)cc3)CC2)C1 [Example 99] | 0.17 µM
16 | 0.049 µM | – | CC1(n2c(-c3ccc(NC(=O)C(=O)Nc4ccc(N5CCC6(CCC(O)C6)CC5)cc4)cc3)cc3cc(F)c(-c4nnn[nH]4)cc32)CC1 (stereo not drawn) [Example 102] | 0.116 µM
17 | 0.07 µM | – | CC1(O)CCC2(CCN(c3ccc(NC(=O)C(=O)Nc4ccc(-c5cc6cc(F)c(-c7nnn[nH]7)cc6n5C5CCC5)cc4)cc3)CC2)C1 (stereo not drawn) [Example 104] | 0.125 µM
18 | 0.103 µM | – | O=C(Nc1ccc(-c2cc3cc(F)c(-c4nnn[nH]4)cc3n2C2CCC2)cc1)C(=O)Nc1ccc(N2CCC3(CCC(CO)C3)CC2)cc1 (stereo not drawn) [Example 106] | 0.11 µM
19 | 0.138 µM | – | CC1(n2c(-c3ccc(NC(=O)C(=O)Nc4ccc(N5CCC6(CCC(CO)C6)CC5)cc4)cc3)cc3cc(F)c(-c4nnn[nH]4)cc32)CCC1 (stereo not drawn) [Example 107] | 0.101 µM
20 | 0.114 µM | – | CC1(n2c(-c3ccc(NC(=O)C(=O)Nc4ccc(N5CCC6(CCC(CO)CC6)CC5)cc4)cc3)cc3cc(F)c(-c4nnn[nH]4)cc32)CCC1 [Example 113] | 0.116 µM
21 | 0.036 µM | 3-4 times | CC1(n2c(-c3ccc(NC(=O)C(=O)Nc4ccc(N5CC6COCC6C5)cc4)cc3)cc3cc(F)c(-c4nnn[nH]4)cc32)CCC1 (stereo not drawn) [Example 115] | 0.11 µM
22 | 0.055 µM | – | O=C(Nc1ccc(-c2cc3cc(F)c(-c4nnn[nH]4)cc3n2C2CCC2)cc1)C(=O)Nc1ccc(N2CC3CC(CO)CC3C2)cc1 (stereo not drawn) [Example 119] | 0.105 µM
